Data set [1] deals with BJAB cells (Burkitt lymphoma cell line). The experiment in a line: Apoptosis induction detected as DNA fragmentation by flow cytometry (FACS) after propidium iodide staining. Format: cell-based. The note with it: 72 h. As to the method: Within the scope of apoptotic cell death, the cell is dismantled proteolytically by caspases from inside. Thereupon, the DNA is also fragmented, inter alia. This DNA fragmentation, which is specific for apoptosis, is considered a proof of apoptosis induction and is detected by means of flow cytometry on the single cell level.
BJAB cells (Burkitt lymphoma cell line) in different concentrations were treated with a titanocene derivative and incubated at 37° C. and 5% CO2 for 72 hours. A control (untreated cell suspension) and a solvent control with dimethyl sulfoxide (DMSO) were continuously included. After incubation for 72 hours, apoptosis induction was detected by flow cytometry (FACS) through DNA fragmentation with propidium iodide (Eβmann, 2000).
FIG. 1: BLAB mock cells (1×10^5/ml) were treated with increasing concentrations of the titanocene derivative 4-[1-(dichlorotitanocenyl)]-4-methylbutyric acid n-octylamide (2) and incubated at 37° C. and 5% CO2 for 72 h. After propidium iodide staining, the DNA fragments were detected by flow cytometry (FACS analysis). Ko (untreated cell suspension) and DMSO (solvent control) were included with equivalent treatment.
Since the activity of the cytostatic agents develops in the malignant cells through a specific apoptosis induction, it is reasonable to measure this effect and thus the selectivity of our compounds rather than stating, as usual, the non-specific cytotoxicity described by the LC50 values. Therefore, for examining the structure-effect relationship of our titanocenes, we have established the concentration (AC50) at which a specific apoptosis is induced in […] of the lymphoma cells.
For determining this value, lymphoma cells (10^5/ml BJAB cells) were incubated in different concentrations with (21) at 5% CO2 and 37° C. for 72 h. After staining with propidium iodide, the DNA fragmentation was detected by flow cytometry by means of a FACS analysis.

Data set [2] concerns primary lymphoblasts from an ALL patient. The experiment in a line: Apoptosis induction in primary lymphoblasts ex vivo (DNA fragmentation, propidium iodide, FACS). The settings on record: 60 h, concentration in the range of LD50 in the BLAB cell line; for apoptosis induction in primary lymphoblasts (in words): therapy-resistant leukemia cells. Format: cell-based, human. As to the method:
The concentrations employed were selected to always be within the respective range of LD50 when the BLAB cell line was used. Thereafter, the cells were incubated at 37° C. and 5% CO2 for 60 hours, followed by staining with propidium iodide and quantifying by flow cytometry in FACS (Prokop et al., 2003).
The incubation was effected at 37° C. and 5% CO2 for 60 h. Apoptosis induction was measured as DNA fragmentation by flow cytometry after propidium iodide staining.

The test system of data set [3] is human lymphoma cells. The settings on record: SCID mice, microcrystalline suspension p.o., 5×50 mg/kg body weight per week over 2 weeks from day 14; Mann-Whitney U test p<0.05. As to the method:
The mean values of the tumor volumes (*=significance) with standard deviations as a function of therapy duration (application of (2) from day 14 with 5×50 mg/kg body weight per week p.o. over 2 weeks) are shown.

Data set [4] relates to BJAB cells. The settings on record: 48 h, concentration-dependent.
Protocol: After treatment of the cells with different concentrations of a titanocene including a zero control and a solvent control (DMSO), the cells are incubated at 37° C. and 5% CO2 for 48 hours.
The incubation was effected at 37° C. and 5% CO2 for 48 h including zero and solvent controls, followed by staining the cells with the mitochondria-specific stain JC-1 and detection of the color change and thus the change of the mitochondrial membrane potential by flow cytometry.
The conditions of data set [5]: SCID mice, oral therapy 50 mg/kg body weight.
Data set [6] relates to BLAB cells. The settings on record: 3 h incubation, highest concentration.
Protocol: A non-specific cytotoxic effect of the titanocenes via necrosis could be excluded by measuring the extracellular lactate dehydrogenase (LDH) release by ELISA reader detection after incubation for 3 h.
The test system of data set [7] is BJAB cells. The settings on record: 75 μM, 72 h.
Data set [8] relates to lymphoma cells (BLAB). The settings on record: various concentrations, 72 h.
Protocol: Lymphoma cells (BLAB) were treated with the carbonyl-substituted titanocene (2), the conventional nucleoside analogue cytarabin (AraC), which is used in the therapy of malignant diseases, and with the combination of (2) and AraC in various concentrations for 72 h. The apoptosis induction was examined by flow cytometry by measuring the DNA fragmentation after staining the cells with propidium iodide. The measured values of three independent examinations are shown, wherein the error bars show the standard deviations from the mean.

Regarding “4-[1-(dichlorotitanocenyl)]-4-methylbutyric acid n-octylamide [Complex (2)]”, the “apoptosis induced, proportion of BJAB cells” value in data set [1] (100 μM) is recorded as “about 840%”. Further, the AC50 in data set [1] (BJAB cell line, 37° C., 5% CO2, read-out: AC50 (concentration at which a specific apoptosis is induced in 500% of the lymphoma cells)) came to 55 µM. For the same compound, the “concentration-dependent apoptosis induction (proportion of apoptotic cells in the total population)” value in data set [1] (BJAB, highest effect over the concentrations tested) was “up to 80%”. Besides, in data set [2], the “apoptosis induction, proportion of leukemia cells ex vivo” value is “about 60%”. In addition, the “growth of human lymphoma cells (tumor volume)” value in data set [3] is reported as “significantly inhibited”. Besides, in data set [4], the “proportion of cells with changed mitochondrial membrane potential (ΔΨm)” value is given as “more than 70%”. In addition, in data set [5], the tolerability entry was “good tolerability”. For the same compound, the “viability of the cell population (LDH release)” value in data set [6] is given as “above 94%”. Also, in data set [7], the cell morphology result is “significant swelling and “blebbing” that is characteristic of apoptosis”. The “effect of the combination with AraC on apoptosis induction” value in data set [8] is reported as “significant synergistic effect”.

`COc1cccc2c1C(=O)c1c(O)c3c(c(O)c1C2=O)C[C@@](O)(C(=O)CO)C[C@@H]3O[C@H]1C[C@H](N)[C@@H](O)[C@H](C)O1` [epirubicin]: the “apoptosis induction in primary lymphoblasts (in words)” value (“apoptosis induction … (in words)” for short) in data set [2] is recorded as “did not induce any significant apoptosis”.

With `CC[C@]1(O)C[C@H]2CN(CCc3c([nH]c4ccccc34)[C@@](C(=O)OC)(c3cc4c(cc3OC)N(C=O)[C@H]3[C@@](O)(C(=O)OC)[C@H](OC(C)=O)[C@]5(CC)C=CCN6CC[C@]43[C@@H]65)C2)C1` [vincristin], the “apoptosis induction … (in words)” value in data set [2] was “did not induce any significant apoptosis”.

In the case of `COc1cccc2c1C(=O)c1c(O)c3c(c(O)c1C2=O)C[C@@](O)(C(=O)CO)C[C@@H]3O[C@H]1C[C@H](N)[C@H](O)[C@H](C)O1` [doxorubicin], the “apoptosis induction … (in words)” value in data set [2] was “did not induce any significant apoptosis”.

On to `Nc1ccn([C@@H]2O[C@H](CO)[C@@H](O)[C@@H]2O)c(=O)n1` [cytarabin], for which the “apoptosis induction … (in words)” value in data set [2] is “did not induce any significant apoptosis”.

Regarding `COc1cccc2c1C(=O)c1c(O)c3c(c(O)c1C2=O)C[C@@](O)(C(C)=O)C[C@@H]3O[C@H]1C[C@H](N)[C@H](O)[C@H](C)O1` [daunorubicin], the “apoptosis induction … (in words)” value in data set [2] is on record as “did not induce any significant apoptosis”.

As for `CC(=O)[C@]1(O)Cc2c(O)c3c(c(O)c2[C@@H](O[C@H]2C[C@H](N)[C@H](O)[C@H](C)O2)C1)C(=O)c1ccccc1C3=O` [idarubicin], in data set [2], the “apoptosis induction … (in words)” value is “did not induce any significant apoptosis”.

The values above are taken from patent publication US20090005338A1, “Carbonyl-substituted titanocenes” (Charite - Universitatsmedizin Berlin, priority 2006, published 2009).
